Square brackets hold non-standard residues; d marks the D form. Peptide text beside a SMILES is read from it. * marks the point of attachment. dPhe(4-NHCONH2) = NC(=O)Nc1ccc(C[C@@H](N)C(=O)O)cc1; Dihydroorotyl(S) = O=C1C[C@@H](C(=O)*)NC(=O)N1; dPhe(4-Cl) = N[C@H](Cc1ccc(Cl)cc1)C(=O)O; Phe(4-NH2) = Nc1ccc(C[C@H](N)C(=O)O)cc1; d2Nal = N[C@H](Cc1ccc2ccccc2c1)C(=O)O; Lys(iPr) = CC(C)NCCCC[C@H](N)C(=O)O; d3Pal = N[C@H](Cc1cccnc1)C(=O)O
Experiment: CS21 safety: treatment-emergent adverse events (MedDRA SOC/PT), crude incidence, also by subgroup
Format: in vivo
Method: The safety variables for this study were assessed on the following: the frequency and severity of adverse events (AEs); the presence of clinically significant changes in laboratory parameters (clinical chemistry, hematology and urinalysis); changes in electrocardiograms (ECGs) and vital signs; changes detected by physical examination; and body weight.
An AE was therefore any unfavorable or unintended sign (including an abnormal laboratory finding), symptom or disease temporally associated with the use of the product, whether or not related to the IMP.
An adverse drug reaction (ADR) was defined as an AE evaluated by the investigator as being probably or possibly related to treatment with the IMP.
AEs were graded according to the National Cancer Institute (NCI) Common Terminology Criteria for Adverse Events (CTCAE). In accordance with the CTCAE criteria, AEs were rated on a five-point scale corresponding to mild, moderate, severe, life-threatening or disabling and death. For those AEs not described in the CTCAE, a separate five-point rating scale was used for rating of the intensity of AEs as follows below:
Safety parameters were evaluated for all patients included in the ITT analysis set, comprising all 610 randomized patients who received at least one dose of study medication. All safety tables include four columns: the three treatment groups described separately, and the pooled degarelix group.
Adverse events were regarded as ‘treatment-emergent’ if they occurred in the time interval from initial dosing to end-of-study. Adverse events were considered ‘pre-treatment’ if they occurred between screening and the initial injections of IMP. As described above, all AEs were classified according to MedDRA (version 10.0) system organ class (SOC), sorted alphabetically, and by preferred term (PT), in decreasing frequency of occurrence. Treatment-emergent AEs were expressed in terms of intensity (using NCI CTCAE) and relationship to study drug.
Using the results from the summary of clinical efficacy (SCE) and summary of clinical safety (SCS) findings, different patient subgroups were analyzed. Subgroup distinguishers included race (white, black, and other), age (<65 years, […], and >75 years), weight (<70 kg, ≥70−<90 kg, and ≥90 kg), body mass index (BMI) (≤20, >20 to 30, and >30 kg/m^2)), region (North-America, Western Europe, Central and Eastern Europe and Other), and stage of prostate cancer (e.g., localized, locally advanced, and metastatic).

[1] = degarelix 240/80 mg, listed as degarelix

For `CC(=O)N[C@H](Cc1ccc2ccccc2c1)C(=O)N[C@H](Cc1ccc(Cl)cc1)C(=O)N[C@H](Cc1cccnc1)C(=O)N[C@@H](CO)C(=O)N[C@@H](Cc1ccc(NC(=O)[C@@H]2CC(=O)NC(=O)N2)cc1)C(=O)N[C@H](Cc1ccc(NC(N)=O)cc1)C(=O)N[C@@H](CC(C)C)C(=O)N[C@@H](CCCCNC(C)C)C(=O)N1CCC[C@H]1C(=O)N[C@H](C)C(N)=O` [Degarelix, D-Alaninamide, N-acetyl-3-(2-naphthalenyl)-D-alanyl-4-chloro-D-phenylalanyl-3-(3-pyridinyl)-D-alanyl-L-seryl-4-[[[(4S)-hexahydro-2,6-dioxo-4-pyrimidinyl]carbonyl]amino]-L phenylalanyl-4-[(aminocarbonyl)amino]-D-phenylalanyl-L leucyl-N6-(1-methylethyl)-L-lysyl-L-prolyl] (Ac-[d2Nal][dPhe(4-Cl)][d3Pal]S[Phe(4-NH2)](Dihydroorotyl(S))[dPhe(4-NHCONH2)]L[Lys(iPr)]P[dA]-NH2), which “ADRs, % of patients” value (degarelix 240/80 mg) is on record?
The value was 57%.

And the “ADRs, E events” value (degarelix 240/80 mg)?
The value was 459.

What about the “ADRs, N patients” value (degarelix 240/80 mg) of the same compound?
Its value is 118.

What about the “AEs leading to discontinuation, % of patients” value (degarelix 240/80 mg) of the same compound?
The value was 7%.

And the “AEs leading to discontinuation, E events” value (degarelix 240/80 mg)?
Its value is 15.

What about the “AEs leading to discontinuation, N patients” value (degarelix 240/80 mg) of the same compound?
The value was 15.

And the “Alanine aminotransferase increased, % of patients” value (degarelix 240/80 mg)?
Its value is “(10%)”.

And the “All AEs, E = number of adverse events” value (degarelix 240/80 mg)?
Its value is 937.

And the “All AEs, N = number of patients” value (degarelix 240/80 mg)?
Its value is 163.

What about the “Arthralgia, % of patients” value (degarelix 240/80 mg) of the same compound?
Its value is “( 5%)”.

What about the “Aspartate aminotransferase increased, % of patients” value (degarelix 240/80 mg) of the same compound?
Its value is “( 5%)”.

What about the “Back pain, % of patients” value (degarelix 240/80 mg) of the same compound?
Its value is “( 6%)”.

And the “Blood & lymphatic system disorders, % of patients” value (degarelix 240/80 mg)?
The value was “( 2%)”.

And the “Cardiac disorders, % of patients” value (degarelix 240/80 mg)?
Its value is “( 8%)”.

And the “Chills, % of patients” value (degarelix 240/80 mg)?
Its value is “( 5%)”.

What about the “Constipation, % of patients” value (degarelix 240/80 mg) of the same compound?
Its value is “( 5%)”.

What about the “Deaths (Grade 5), % of patients” value (degarelix 240/80 mg) of the same compound?
The value was 2%.

And the “Deaths (Grade 5), E events” value (degarelix 240/80 mg)?
Its value is 5.

What about the “Deaths (Grade 5), N patients” value (degarelix 240/80 mg) of the same compound?
Its value is 5.

What about the “Ear & labyrinth disorders, % of patients” value (degarelix 240/80 mg) of the same compound?
The value was “( 3%)”.

What about the “Endocrine disorders, % of patients” value (degarelix 240/80 mg) of the same compound?
Its value is “(<1%)”.

What about the “Eye disorders, % of patients” value (degarelix 240/80 mg) of the same compound?
Its value is “( 3%)”.

What about the “Fatigue, % of patients” value (degarelix 240/80 mg) of the same compound?
The value was “( 3%)”.

What about the “Gastrointestinal disorders, % of patients” value (degarelix 240/80 mg) of the same compound?
The value was “(18%)”.

What about the “General disorders & administration site conditions, % of patients” value (degarelix 240/80 mg) of the same compound?
The value was “(44%)”.

And the “Hepatobiliary disorders, % of patients” value (degarelix 240/80 mg)?
The value was “(<1%)”.

And the “Hot flush, % of patients” value (degarelix 240/80 mg)?
Its value is “(26%)”.

What about the “Hypercholesterolaemia, % of patients” value (degarelix 240/80 mg) of the same compound?
The value was “( 3%)”.

What about the “Hypertension, % of patients” value (degarelix 240/80 mg) of the same compound?
Its value is “( 6%)”.

What about the “Immune system disorders, % of patients” value (degarelix 240/80 mg) of the same compound?
Its value is “(<1%)”.

And the “Infections & infestations, % of patients” value (degarelix 240/80 mg)?
Its value is “(22%)”.

And the “Injection site erythema, % of patients” value (degarelix 240/80 mg)?
Its value is “(17%)”.

What about the “Injection site induration, % of patients” value (degarelix 240/80 mg) of the same compound?
Its value is “( 4%)”.

And the “Injection site nodule, % of patients” value (degarelix 240/80 mg)?
The value was “( 3%)”.

What about the “Injection site pain, % of patients” value (degarelix 240/80 mg) of the same compound?
The value was “(28%)”.

What about the “Injection site swelling, % of patients” value (degarelix 240/80 mg) of the same compound?
Its value is “( 6%)”.

And the “Injury, poisoning & procedural complications, % of patients” value (degarelix 240/80 mg)?
The value was “( 5%)”.

What about the “Investigations, % of patients” value (degarelix 240/80 mg) of the same compound?
Its value is “(26%)”.

And the “Metabolism & nutrition disorders, % of patients” value (degarelix 240/80 mg)?
The value was “( 7%)”.

And the “Musculoskeletal & connective tissue disorders, % of patients” value (degarelix 240/80 mg)?
Its value is “(15%)”.

And the “Nausea, % of patients” value (degarelix 240/80 mg)?
The value was “( 4%)”.

And the “Neoplasms benign, malignant & unspecified, % of patients” value (degarelix 240/80 mg)?
The value was “( 5%)”.

And the “Nervous system disorders, % of patients” value (degarelix 240/80 mg)?
The value was “(12%)”.

And the “Psychiatric disorders, % of patients” value (degarelix 240/80 mg)?
The value was “( 8%)”.

And the “Renal & urinary disorders, % of patients” value (degarelix 240/80 mg)?
Its value is “(14%)”.

What about the “Reproductive system & breast disorders, % of patients” value (degarelix 240/80 mg) of the same compound?
The value was “( 4%)”.

And the “Respiratory, thoracic & mediastinal disorders, % of patients” value (degarelix 240/80 mg)?
Its value is “(12%)”.

And the “Serious AEs, % of patients” value (degarelix 240/80 mg)?
The value was 10%.

What about the “Serious AEs, E events” value (degarelix 240/80 mg) of the same compound?
The value was 26.

And the “Serious AEs, N patients” value (degarelix 240/80 mg)?
Its value is 21.

What about the “Skin & subcutaneous tissue disorders, % of patients” value (degarelix 240/80 mg) of the same compound?
Its value is “( 9%)”.

And the “Urinary tract infection, % of patients” value (degarelix 240/80 mg)?
The value was “( 5%)”.

What about the “Vascular disorders, % of patients” value (degarelix 240/80 mg) of the same compound?
The value was “(34%)”.

What about the “Weight increased, % of patients” value (degarelix 240/80 mg) of the same compound?
The value was “( 9%)”.

What about the “Injection site adverse events, % of subjects” value (degarelix 240/80 mg s.c., leuprolide 7.5 mg i.m.) of the same compound?
The value was 35%.

What about the “ADRs excluding injection site reactions, % of patients” value (degarelix 240/80 mg, leuprolide 7.5 mg) of the same compound?
The value was 43%.

What about the “Arthralgia, % of patients” value [1] of the same compound?
The value was 5%.

And the “Back pain, % of patients” value [1]?
Its value is 6%.

And the “Chills, % of patients” value [1]?
Its value is 5%.

And the “Constipation, % of patients” value [1]?
The value was 5%.

What about the “Fatigue, % of patients” value [1] of the same compound?
Its value is 3%.

And the “Hot flush, % of patients” value [1]?
Its value is 26%.

What about the “Hypertension, % of patients” value [1] of the same compound?
The value was 6%.

And the “Injection site erythema, % of patients” value [1]?
Its value is 17%.

And the “Injection site induration, % of patients” value [1]?
Its value is 4%.

And the “Injection site nodule, % of patients” value [1]?
Its value is 3%.

And the “Injection site pain, % of patients” value [1]?
The value was 28%.

What about the “Injection site swelling, % of patients” value [1] of the same compound?
Its value is 6%.

What about the “Musculoskeletal & connective tissue disorders, % of patients” value [1] of the same compound?
The value was 15%.

What about the “Treatment-emergent adverse events (all AEs), % of patients” value [1] of the same compound?
Its value is 79%.

What about the “Urinary tract infection, % of patients” value [1] of the same compound?
Its value is 5%.

And the “Weight increased, % of patients” value [1]?
Its value is 9%.

What about the “ADRs excluding injection site reactions, % of patients” value (degarelix 240/160 mg) of the same compound?
The value was 44%.

And the “ADRs, % of patients” value (degarelix 240/160 mg)?
The value was 59%.

And the “ADRs, E events” value (degarelix 240/160 mg)?
Its value is 463.

What about the “ADRs, N patients” value (degarelix 240/160 mg) of the same compound?
The value was 120.

Source: patent publication US11766468B2, “Method of treating prostate cancer with GnRH antagonist” (priority 2012, dated 2023)
